Tested on: all wired variants (GDH-S247PDAz, FGM-S247PDAz, FGM-T558PDAz, FGM-S247PCA)
Settings: read-out: KM^app of all samples (electrochemical); glucose; range over all wired variants; 300 mV vs. Ag/AgCl

SMILES: OC[C@H]1OC(O)[C@H](O)[C@@H](O)[C@@H]1O (stereo partly shown) [glucose]
- Km: 1550 to 1890 µM
